From US11833187B2, “Materials and methods for extracellular vessicle-associated diseases” (THE BRIGHAM AND WOMEN'S HOSPITAL, INC., priority 2017, dated 2023)
Entries after “also recorded” stand apart in the source; their conditions may differ. One block for each compound: values may come before it. Peptide text beside a SMILES is read from it. * marks the point of attachment. Cbz = O=C(OCc1ccccc1)*

Tests used:
FLAG-sortilin [1] = molecular target: T1, FLAG-sortilin (Homo sapiens, UniProt Q99523); test: Non-reducing western blotting of sortilin dimerization in FLAG-sortilin HEK293 cells; format: cell-based; details: for sortilin homodimers of low molecular weight in the cells: HEK293 cells stably overexpressing FLAG-sortilin, 24-h incubation, n=3; for dimerization of sortilin in the cells: FLAG-sortilin HEK293 cells, propeptide 100 nmol/L, 24 hours, n=2
T1 construct: pcDNA3.1(+) FLAG-sortilin full-length (Full), amino acids (aa) 1-831; expressed in transfected cells; cells and their extracellular vesicles
T1 sequence (Q99523 78-831): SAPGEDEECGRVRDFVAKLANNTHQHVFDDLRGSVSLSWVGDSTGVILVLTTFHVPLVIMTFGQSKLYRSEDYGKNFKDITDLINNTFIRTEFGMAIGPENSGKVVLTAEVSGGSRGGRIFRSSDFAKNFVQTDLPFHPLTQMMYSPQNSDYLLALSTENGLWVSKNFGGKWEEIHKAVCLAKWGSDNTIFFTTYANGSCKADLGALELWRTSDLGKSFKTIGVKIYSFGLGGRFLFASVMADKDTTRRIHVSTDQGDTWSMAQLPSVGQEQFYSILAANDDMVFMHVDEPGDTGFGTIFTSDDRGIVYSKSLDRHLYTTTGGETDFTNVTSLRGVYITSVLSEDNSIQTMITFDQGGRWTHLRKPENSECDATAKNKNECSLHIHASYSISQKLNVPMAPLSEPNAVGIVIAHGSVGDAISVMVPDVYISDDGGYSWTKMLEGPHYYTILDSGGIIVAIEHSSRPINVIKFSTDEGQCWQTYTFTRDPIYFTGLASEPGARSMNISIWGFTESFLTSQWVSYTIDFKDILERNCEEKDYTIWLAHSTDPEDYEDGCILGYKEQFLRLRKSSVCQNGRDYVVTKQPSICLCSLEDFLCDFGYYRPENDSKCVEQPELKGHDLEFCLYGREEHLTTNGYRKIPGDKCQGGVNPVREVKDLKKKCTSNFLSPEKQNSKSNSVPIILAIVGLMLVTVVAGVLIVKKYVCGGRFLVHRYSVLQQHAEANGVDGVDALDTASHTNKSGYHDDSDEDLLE
Experimental: (§1) Cells, EVs and the supernatant of culture medium were lysed with IP lysis buffer (Thermo Fisher Scientific Inc., Cat #87787) containing protease inhibitor (Roche Diagnostics, Cat #04693159001). Protein concentration was measured using the bicinchoninic acid (BCA) method (Thermo Fisher Scientific Inc., Cat #23225). Laemmli buffer (Boston Bioproduct; non-reducing, Cat #BP-110NR; reducing, Cat #BP-111R) was added to the lysate, and boiled at 95° C. for 5 minutes. Total protein was separated by 4-12% SDS-PAGE and transferred to polyvinylidene difluoride (PVDF) membrane using iBlot Western blotting system (Life Technologies) or conventional wet method. Primary antibodies against human sortilin ICD (rabbit 1:1000; Abcam plc., Cat #ab16640, Lot #GR185198-1), human (3-actin (mouse 1:2000; Novus Biologicals, LLC, Cat #NB600-501, Lot #014M4759), FLAG (rabbit 1:1000; Sigma, Cat #F4725, Lot #093M4798, mouse (M2) 1:1000; Sigma, Cat #F1804, Lot #SLBJ4607V), 6×His (mouse 1:1000; Abcam plc., Cat #ab18184, Lot #GR247674-1).
(§2) HEK293 cells were purchased from American Type Culture Collection (ATCC) and maintained in Eagle's minimum essential medium (EMEM, ATCC, Cat #30-2003) supplemented with 10% fetal bovine serum (FBS), penicillin (100 U/mL), and streptomycin (100 μg/mL) at 37° C. in a humidified atmosphere of 5% CO2. For transfection in HEK293 cells, Lipofectamine 2000 reagent (Thermo Fisher Scientific Inc., Cat #11668019) was used, according to the manufacturer's protocol. HEK293 cells stably expressing FLAG-sortilin Full, ECD+TMD, ICD+TMD and sortilin-3×FLAG were obtained by transfection with pcDNA3.1(+) FLAG-sortilin Full, pcDNA3.1(+) FLAG-sortilin-ECD+TMD, pcDNA3.1(+) FLAG-sortilin ICD+TMD, and expression vector of sortilin-3×FLAG (GeneCopoeia, Inc., Cat # EX-M0397-M14), respectively. These cell lines were maintained in EMEM supplemented with 10% FBS, penicillin/streptomycin, and geneticin 800 μg/mL. Cells were incubated in the incubator with MG-132 and chloroquine during the indicated time, and with 2-FPA and sortilin propeptide for 24 hours, respectively.

FLAG-sortilin [2] = molecular target: T1, FLAG-sortilin; test: Non-reducing western blotting of sortilin dimerization in extracellular vesicles of FLAG-sortilin HEK293 cells; format: cell-based; details: for sortilin homodimers (dimerization) in the extracellular vesicles: EVs of HEK293 cells stably overexpressing FLAG-sortilin, 24-h incubation, n=3; for dimerization of sortilin in the extracellular vesicles: EVs of FLAG-sortilin HEK293 cells, propeptide 100 nmol/L, 24 hours, n=2
Experimental: as §1, §2
Separation of culture medium to supernatant and EVs was performed according to the protocol previously reported (41). Culture medium underwent centrifugation at 1,000 rpm for 5 minutes to remove cell debris. Then, the supernatant and EVs were separated by ultracentrifugation at 100,000 g for 40 minutes at 4° C. (Optima Max Ultracentrifuge, Beckman Coulter).

FLAG-sortilin ICD+TMD = test: Reducing western blotting of FLAG-sortilin ICD+TMD protein expression in stably overexpressing HEK293 cells; format: cell-based, human; details: for protein expression of FLAG-sortilin ICD+TMD: MG-132 20 μmol/L or chloroquine 10 μmol/L for 7 hours, n=3
Experimental: as §1, §2

[3] = listed as palmitoylation inhibitor

sortilin homodimers of low molecular weight in the cells (FLAG-sortilin [1]; [3]): increased sortilin dimerization
Compound: CCCCCCCCCCCCCCC(F)C(=O)O (stereo not drawn) [2-FPA, 2-fluoropalmitic acid]
sortilin homodimers of low molecular weight in the cells (FLAG-sortilin [1]): increased only homodimers of lower molecular size in the cells; also recorded: increased sortilin homodimers of low molecular weight | sortilin homodimers (dimerization) in the extracellular vesicles (FLAG-sortilin [2]): increased dimerization of FLAG-sortilin in the EVs; also recorded: increased sortilin homodimers of low molecular weight | sortilin homodimers (dimerization) in the extracellular vesicles (FLAG-sortilin [2]; [3]): increased transport of dimerized sortilin to EVs

Compound: CC(C)C[C@@H](C=O)NC(=O)[C@H](CC(C)C)NC(=O)[C@H](CC(C)C)NC(=O)OCc1ccccc1 [MG-132] (Cbz-Leu-Leu-Leu-aldehyde)
protein expression of FLAG-sortilin ICD+TMD (FLAG-sortilin ICD+TMD): increased the protein expression of FLAG-sortilin ICD+TMD | protein expression of FLAG-sortilin ICD+TMD, time and concentration dependence (FLAG-sortilin ICD+TMD; MG-132 2-20 μmol/L for 7 or 24 hours): increased protein expression of FLAG-sortilin ICD+TMD in a time- and concentration-dependent manner

Compound: Chloroquine diphosphate salt
protein expression of FLAG-sortilin ICD+TMD (FLAG-sortilin ICD+TMD): did not

dimerization of sortilin in the cells (FLAG-sortilin [1]): did not affect dimerization in the cells | dimerization of sortilin in the cells (FLAG-sortilin [1]; listed as propeptide): a decrease in the cells was not observed
Compound: sortilin-derived propeptide: Sortilin propeptide (SEQ ID NO: 2), purchased from Phoenix Pharmaceuticals; the claimed inhibitor of sortilin dimerization (QDRLDAPPPPAAPLPRWSGPIGVSWGLRAAAAGGAFPRGGRWRR; listed as Homo sapiens)
sortilin dimerization (formation of homodimers), compartment not given (FLAG-sortilin [1]; HEK293 cell line, propeptide treatment, summary statement): reduced them; also recorded: sortilin dimerization was decreased | dimerization of sortilin in the extracellular vesicles (FLAG-sortilin [2]): decreased sortilin homodimers within EVs; also recorded: decreases sortilin homodimers in EVs; also recorded: decreased dimerization in the extracellular vesicles | dimerization of sortilin in the extracellular vesicles (FLAG-sortilin [2]; listed as propeptide): decreased dimerization of sortilin in the extracellular vesicles
